Assays:
S1R = molecular target: T1, S1R (Homo sapiens, UniProt Q99720); assay: S1R competitive radioligand binding, [3H](+)-pentazocine, Jurkat cell membranes; conditions: for IC50: [3H]-(+)-pentazocine displacement, n = 2; for Ki (S2R)/ Ki (S1R): selectivity ratio S2R/S1R
T1 construct: For the S1R assay, Jurkat cell membranes (10–20 μg protein/tube) were incubated at 37 °C for 2 h; host or cells: Jurkat cell membranes
From the text: (§1) S1R and S2R affinities were classically evaluated through competitive binding assays using radioligands, following the protocol described by Ganapathy et al.. The selective radioligand [^3H] (+)-pentazocine was employed as the classic prototypical ligand, selectively binding to the orthosteric S1R-binding sites. […] Jurkat cell membranes served as the receptor source in both assays. The equilibrium dissociation constants (Ki) for S1R and S2R were derived from the IC50 values of each compound, and selectivity ratios (S2R/S1R) were subsequently calculated (Table 1, Figures S2 and S3).
(§2) Binding assays were performed by Eurofins Cerep (Poitiers, France) according to the protocol of Ganapathy. […] For the S2R assay, Jurkat cell membranes (10–20 μg protein/tube) were incubated at room temperature for 1 h in the same buffer with [^3H]-DTG (25 nM) in the presence of (+)-pentazocine (1 μM) to saturate S1R, along with a range of test compound concentrations. Bound radioactivity was quantified by liquid scintillation counting. Nonspecific binding was determined under identical conditions in the presence of 10 μM unlabeled haloperidol. The IC50 values (concentration causing a half-maximal inhibition of control-specific binding) and Hill coefficients (nH) were determined by non-linear regression analysis of the competition curves generated with mean replicate values using Hill equation curve-fitting. This analysis was performed using software developed at Cerep (Hill software) and validated by comparison with data generated by the commercial software SigmaPlot ®4.0 for Windows® (©1997 by SPSS Inc.). Inhibition constants (Ki) were calculated from IC50 values using the method of Cheng and Prusoff.

S2R = molecular target: T2, S2R (Homo sapiens, UniProt Q5BJF2); assay: S2R competitive radioligand binding, [3H]-DTG with excess (+)-pentazocine, Jurkat cell membranes; conditions: [3H]-DTG displacement with excess (+)-pentazocine, n = 2
T2 construct: For the S2R assay, Jurkat cell membranes (10–20 μg protein/tube) were incubated at room temperature for 1 h; host or cells: Jurkat cell membranes
From the text: as §1, §2

[1] = molecular target: serotonin 5-HT2A receptor (Homo sapiens, UniProt P28223); assay: Off-target panel, aequorin functional assay; format: cell-based; conditions: 10 µM, duplicate; % inhibition of reference agonist activity
Procedure: Among the synthesized compounds, four derivatives were selected based on their affinity and selectivity profiles. […] The remaining compounds (2, 3, 6, and 7) were assessed for their agonist and antagonist activities across a panel of 58 receptors relevant to CNS disorders, including serotonin, adenosine, adrenergic, cannabinoid, dopamine, histamine, and muscarinic receptors. These assays were conducted at a concentration of 10 µM, in duplicate, utilizing aequorin [19], cAMP HTRF™ [20], and GTPγS binding assays, as detailed in Table 2. […] Specifically, compound 6 antagonized four receptors (5-HT2A, 5-HT2C, α1a, H1), while compound 7 was active against five receptors (5-HT2A, 5-HT3, α1a, H1, M1).
Rapidly, the tests were performed by Euroscreen (https://euroscreenfast.com/) with recombinant human G-coupled receptor-expressing cell lines using aequorin functional assays for serotonin 5-HT2A, 5-HT2B, 5-HT2C, 5-HT3, and 5-HT5A, adrenergic α1a and α1b, angiotensin AT1, cholesistokinin CCFK1, endothelin ETA, histamine H1, muscarinic M1 and M3, neurokinin NK1 and NK2, vasopressin V1a, and vasoactive intestinal peptide VPAC1 receptor analysis. Then, cAMP HTRF^TM assays were used to analyze serotonin 5-HT1A, 5-HT4E, 5-HT6, and 5-HT7, adenosine A1, A2A, and A3, adrenergic β1 and β2, cannabinoid CB1, dopamine D1, histamine H2, and neuropeptide Y NPY receptors. GTPγS^35 assays were used to analyze serotonin 5-HT1B, adrenergic α2a and α2b, dopamine D2, muscarinic M2 and M4, opioid δ, κ and µ, and somatostatine SST4 receptors.
Agonist and antagonist activities of the test compound are expressed as the percentage of the activity of the reference agonist at its EC100 concentration or the percentage of inhibition of the reference agonist activity at its EC80 concentration, respectively.
For the aequorin assays, different cell lines co-expressing the receptors were grown in specific culture media and incubated for 4 h with coelenterazine h. For agonist testing, cell suspensions were mixed with test or reference agonists in a 96-well plate. For antagonist testing, the reference agonist at its EC80 (final concentration) was injected to the mix the containing cells and the tested compound. The resulting emission of light was recorded using the Hamamatsu Functional Drug Screening System 6000 [19].

hERG channel = molecular target: T3, hERG channel (Homo sapiens, UniProt Q12809); assay: hERG automated whole-cell patch-clamp in hERG CHO-K1 cells; format: cell-based; conditions: for hERG inhibition IC50 / IC50: tail current, hERG CHO-K1 cells, 0.1 to 10 µM, n = 2; for IC50: read-out: hERG inhibition IC50
T3 construct: host or cells: CHO-K1
Procedure: Cardiac toxicity is a leading cause of drug development failure. Early safety profiling includes evaluation of the potassium voltage-gated channel subfamily H member 2 (KCNH2 or hERG) channel, the only in vitro assay mandated by regulatory agencies to predict proarrhythmic risk. […] Importantly, an IC50 (hERG)/Ki (σ1) ratio exceeding 100 is advised for cardiac safety; all compounds met this criterion.
Cardiotoxicity analysis was performed by Eurofins Cerep (Poitiers, France) as described in [41]. Rapidly, hERG CHO-K1 cells were used to perform automated whole-cell patch-clamp. Compounds were evaluated in duplicate from 0.1 to 10 µM. The degree of inhibition (%) was determined by measuring the tail current amplitude, which was induced by a one-second test pulse to −40 mV after a two-second pulse to +20 mV, before and after drug incubation for 5 min at room temperature. After normalization, activities were expressed as the % inhibition of tail current. […] The concentration–response relationship of each compound was constructed from the percentage reductions in current amplitude by sequential concentrations.

T1 sequence (Q99720 whole entry): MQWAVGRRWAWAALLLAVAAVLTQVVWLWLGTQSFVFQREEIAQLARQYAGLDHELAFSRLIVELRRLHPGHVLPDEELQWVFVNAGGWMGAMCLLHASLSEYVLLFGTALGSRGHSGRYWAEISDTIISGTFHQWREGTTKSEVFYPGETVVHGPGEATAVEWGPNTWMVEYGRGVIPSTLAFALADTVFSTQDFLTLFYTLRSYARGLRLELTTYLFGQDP
T3 sequence (Q12809 whole entry): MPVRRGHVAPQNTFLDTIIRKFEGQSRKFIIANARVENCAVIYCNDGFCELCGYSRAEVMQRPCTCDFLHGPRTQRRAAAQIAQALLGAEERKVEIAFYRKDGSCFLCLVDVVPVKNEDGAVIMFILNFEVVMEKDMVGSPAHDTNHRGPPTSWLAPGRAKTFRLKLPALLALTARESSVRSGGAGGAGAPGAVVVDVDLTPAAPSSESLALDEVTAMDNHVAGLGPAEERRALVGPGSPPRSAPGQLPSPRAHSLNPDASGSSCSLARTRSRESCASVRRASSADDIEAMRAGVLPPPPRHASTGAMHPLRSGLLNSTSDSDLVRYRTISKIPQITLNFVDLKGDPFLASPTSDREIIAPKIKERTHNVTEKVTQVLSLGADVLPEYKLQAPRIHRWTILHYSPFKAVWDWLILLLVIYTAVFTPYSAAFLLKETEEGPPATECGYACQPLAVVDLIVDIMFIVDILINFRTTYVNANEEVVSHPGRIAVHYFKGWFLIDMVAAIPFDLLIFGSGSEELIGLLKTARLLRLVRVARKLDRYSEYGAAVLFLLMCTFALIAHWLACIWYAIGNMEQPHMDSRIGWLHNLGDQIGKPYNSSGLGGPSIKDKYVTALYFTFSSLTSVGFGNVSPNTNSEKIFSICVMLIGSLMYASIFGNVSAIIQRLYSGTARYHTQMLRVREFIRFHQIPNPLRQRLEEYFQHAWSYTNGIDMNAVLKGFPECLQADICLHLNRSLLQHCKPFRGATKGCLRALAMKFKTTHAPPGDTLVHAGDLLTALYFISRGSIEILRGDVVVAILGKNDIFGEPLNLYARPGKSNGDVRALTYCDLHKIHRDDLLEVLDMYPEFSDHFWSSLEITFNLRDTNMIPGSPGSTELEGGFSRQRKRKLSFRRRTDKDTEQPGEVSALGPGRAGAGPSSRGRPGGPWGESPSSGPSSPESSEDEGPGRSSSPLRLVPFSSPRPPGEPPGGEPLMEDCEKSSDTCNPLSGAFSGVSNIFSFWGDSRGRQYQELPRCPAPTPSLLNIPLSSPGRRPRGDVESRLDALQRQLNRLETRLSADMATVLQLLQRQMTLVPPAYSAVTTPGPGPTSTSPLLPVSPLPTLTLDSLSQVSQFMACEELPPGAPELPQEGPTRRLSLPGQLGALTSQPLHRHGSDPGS
T2 sequence (Q5BJF2 whole entry): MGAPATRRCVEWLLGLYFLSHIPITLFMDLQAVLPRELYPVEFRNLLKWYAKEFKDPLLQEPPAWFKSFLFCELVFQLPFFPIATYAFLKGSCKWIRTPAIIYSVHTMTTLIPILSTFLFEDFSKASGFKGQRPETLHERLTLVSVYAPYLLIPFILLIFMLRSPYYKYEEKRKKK
Sequence of serotonin 5-HT2A receptor (P28223 whole entry): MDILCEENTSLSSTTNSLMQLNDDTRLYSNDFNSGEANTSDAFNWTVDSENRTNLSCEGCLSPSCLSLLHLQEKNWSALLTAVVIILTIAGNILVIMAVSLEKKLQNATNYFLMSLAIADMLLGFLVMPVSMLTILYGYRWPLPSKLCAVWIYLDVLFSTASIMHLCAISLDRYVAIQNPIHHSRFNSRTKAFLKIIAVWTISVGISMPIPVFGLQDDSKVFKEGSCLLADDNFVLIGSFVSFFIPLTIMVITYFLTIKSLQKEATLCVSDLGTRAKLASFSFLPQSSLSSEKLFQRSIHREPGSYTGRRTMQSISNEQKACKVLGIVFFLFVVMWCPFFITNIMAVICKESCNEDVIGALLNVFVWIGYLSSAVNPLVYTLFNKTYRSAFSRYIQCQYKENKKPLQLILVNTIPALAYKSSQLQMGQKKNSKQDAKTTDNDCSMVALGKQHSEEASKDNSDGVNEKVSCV

SMILES	Ki (S1R; [3H](+)-pentazocine, Jurkat cell membranes, mean of 2–3 independent experiments) [nM]	IC50 (S1R; Jurkat cell membranes) [nM]	Ki (S2R)/ Ki (S1R) (S1R)	IC50 (S2R) [nM]	5-HT2A [b] antagonist activity [1]	hERG inhibition IC50 (hERG channel)	IC50 (hERG channel) [nM]	IC50 (hERG)/Ki (σ1) (hERG channel; ratio)
CN(CCC(=O)NCc1cccc(Cl)c1)Cc1ccccc1 [Compound 2, 3-(Benzylmethylamino)-N-(3-chlorobenzyl)propanamide]	0.6	1.2	317	270	72%	micromolar range	6800	
CN(CCC(=O)NCc1ccc(C#N)cc1)Cc1ccccc1 [Compound 6, 3-(Benzylmethylamino)-N-(4-cyanobenzyl)propanamide]		11	331	2400	antagonized	micromolar range	800	143

Reference: PMC12430443, “Discovery of Novel Benzamide-Based Sigma-1 Receptor Agonists with Enhanced Selectivity and Safety” (Molecules, 2025)
